Converted amounts (≈) assume the structure as drawn.
Tests used:
[1] = test system: Staphylococcus gallinarum; assay: Antibacterial activity against Staphylococcus gallinarum ATCC 9184 assessed as cell growth inhibition by agar dilution method; assay type: functional
[2] = Inhibition of Escherichia coli topoisomerase 2 supercoiling activity by gel electrophoresis
[3] = Inhibition of Escherichia coli topoisomerase 4 decatenation activity by gel electrophoresis
[4] = test system: Staphylococcus aureus; assay: Antibacterial activity against Staphylococcus aureus ATCC 12600 assessed as cell growth inhibition by agar dilution method; assay type: functional
[5] = test system: Escherichia coli; assay: Antibacterial activity against Escherichia coli ATCC 25922 assessed as cell growth inhibition by agar dilution method; assay type: functional
[6] = test system: Listeria monocytogenes; assay: Antibacterial activity against Listeria monocytogenes ATCC 15313 assessed as cell growth inhibition by agar dilution method; assay type: functional
[7] = test system: Candida albicans; assay: Antifungal activity against Candida albicans 475/15 assessed as fungal growth inhibition measured after 24 hrs by microdilution assay; assay type: functional
[8] = test system: Candida albicans; assay: Antifungal activity against Candida albicans 13/15 assessed as fungal growth inhibition measured after 24 hrs by microdilution assay; assay type: functional
[9] = test system: Candida albicans; assay: Antifungal activity against Candida albicans 10/15 assessed as fungal growth inhibition measured after 24 hrs by microdilution assay; assay type: functional
[10] = test system: Candida albicans; assay: Antifungal activity against Candida albicans 527/14 assessed as fungal growth inhibition measured after 24 hrs by microdilution assay; assay type: functional
[11] = biological target: UDP-galactopyranose mutase (Mycobacterium tuberculosis) (UniProt P9WIQ1); assay: Inhibition of Mycobacterium tuberculosis UGM at 20 uM by HPLC inhibition assay relative to control
UDP-galactopyranose mutase (Mycobacterium tuberculosis), sequence (P9WIQ1 whole entry, looked up): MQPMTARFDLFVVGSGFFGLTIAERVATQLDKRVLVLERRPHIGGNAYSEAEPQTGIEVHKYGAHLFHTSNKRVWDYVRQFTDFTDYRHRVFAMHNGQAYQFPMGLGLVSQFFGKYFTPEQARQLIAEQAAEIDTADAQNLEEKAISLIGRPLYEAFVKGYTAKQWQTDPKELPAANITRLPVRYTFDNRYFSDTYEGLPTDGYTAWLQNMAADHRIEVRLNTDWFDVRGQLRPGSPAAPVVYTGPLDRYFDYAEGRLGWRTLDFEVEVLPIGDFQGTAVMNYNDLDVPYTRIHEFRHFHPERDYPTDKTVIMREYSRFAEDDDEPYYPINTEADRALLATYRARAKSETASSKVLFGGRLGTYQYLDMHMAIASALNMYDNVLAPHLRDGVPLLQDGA

[12] = test system: MCF7; assay: Antiproliferative activity against human MCF7 assessed as reduction in cell viability incubated for 48 hrs by MTT assay; assay type: functional
[13] = test system: Enterobacter cloacae; assay: Antibacterial activity against Enterobacter cloacae assessed as cell growth inhibition incubated for 18 hrs by agar overlay method; assay type: functional
[14] = test system: Bacillus cereus; assay: Antibacterial activity against Bacillus cereus NAS 596 assessed as cell growth inhibition incubated for 18 hrs by agar overlay method; assay type: functional
[15] = test system: Heyndrickxia coagulans; assay: Antibacterial activity against Bacillus coagulans assessed as cell growth inhibition incubated for 18 hrs by agar overlay method; assay type: functional
[16] = test system: Proteus mirabilis; assay: Antibacterial activity against Proteus mirabilis assessed as cell growth inhibition incubated for 18 hrs by agar overlay method; assay type: functional
[17] = test system: Staphylococcus aureus; assay: Antibacterial activity against Staphylococcus aureus ATCC 6538 assessed as cell growth inhibition incubated for 18 hrs by agar overlay method; assay type: functional
[18] = test system: Klebsiella pneumoniae; assay: Antibacterial activity against Klebsiella pneumoniae ATCC 13883 assessed as cell growth inhibition incubated for 18 hrs by agar overlay method; assay type: functional
[19] = test system: Escherichia coli; assay: Antibacterial activity against Escherichia coli ATCC 25922 assessed as cell growth inhibition incubated for 18 hrs by agar overlay method; assay type: functional
[20] = test system: Bacillus subtilis; assay: Antibacterial activity against Bacillus subtilis ATCC 6633 assessed as cell growth inhibition incubated for 18 hrs by agar overlay method; assay type: functional
[21] = test system: MDA-MB-231; assay: Antiproliferative activity against human MDA-MB-231 cells assessed as cell growth inhibition measured after 72 hrs by MTT assay; assay type: functional, cell-based; details: MDA-MB-231, 72 h
[22] = Selectivity ratio of GI50 for cytotoxicity against human DU-145 cells to GI50 for cytotoxicity against human PC-3 cells by MTT assay; assay type: functional
[23] = test system: PC-3; assay: Cytotoxicity against human PC-3 cells assessed as cell growth inhibition measured after 48 hrs by MTT assay; assay type: functional
[24] = biological target: Bcl-2-like protein 1 (Homo sapiens) (UniProt Q07817); assay: Binding affinity to recombinant human Bcl-xL assessed as change in enthalpy by MM-PBSA method
Bcl-2-like protein 1 (Homo sapiens), sequence (Q07817 whole entry): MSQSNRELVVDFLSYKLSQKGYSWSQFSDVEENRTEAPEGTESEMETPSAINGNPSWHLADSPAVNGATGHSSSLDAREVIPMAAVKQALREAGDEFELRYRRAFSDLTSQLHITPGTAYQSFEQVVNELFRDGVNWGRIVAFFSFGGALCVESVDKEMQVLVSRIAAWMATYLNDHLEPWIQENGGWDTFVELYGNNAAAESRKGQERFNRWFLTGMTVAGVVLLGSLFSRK

[25] = species: Mus musculus; assay: Anticancer activity against ApcMin harboring mouse model assessed as fold increase in p53 expression measured after 16 weeks by […]; assay type: functional, Neoplasm
[26] = test system: HCT-116; assay: Anticancer activity against human HCT-116 cells xenografted in mouse assessed as fold decrease in tumor growth measured after 3 weeks by digital caliper method; assay type: functional
[27] = test system: HCT-116; assay: Antiproliferative activity against human HCT-116 cells assessed as cell growth inhibition by Z2 coulter counter based analysis; assay type: functional
[28] = Antioxidant activity assessed as DPPH radical scavenging activity after 30 mins under dark condition; assay type: functional
[29] = Cytotoxicity against MDCK cells assessed as reduction in cell viability incubated for 48 hrs by SRB assay; assay type: toxicity, cell-based, Canis lupus familiaris; details: dog
[30] = test system: Influenza A virus; assay: Antiviral activity against influenza A/PR/8/34 H1N1 virus infected in MDCK cells assessed as cell growth inhibition measured after 48 hrs by SRB assay; assay type: functional, organism-based; details: A/PR/8/34 H1N1, MDCK

Work on CC(=O)OC[C@H]1OC(OC(C)=O)[C@H](NCc2c(O)cc(O)c3c(=O)cc(-c4ccc(O)c(O)c4)oc23)[C@@H](OC(C)=O)[C@@H]1OC(C)=O (stereo partly drawn) yielded an MIC [1] of 0.05 µg/mL (≈ 0.0775 µM), an IC50 [2] of 0.25 µg/mL (≈ 0.387 µM) and an IC50 [3] of 0.25 µg/mL (≈ 0.387 µM). It also gave an MIC [4] of 1 µg/mL (≈ 1.55 µM), an MIC [5] of 2 µg/mL (≈ 3.1 µM) and an MIC [6] of 0.5 µg/mL (≈ 0.775 µM).

In the case of C[C@@H]1O[C@@H](OC[C@H]2O[C@@H](Oc3c(-c4ccc(O)c(O)c4)oc4cc(O)cc(O)c4c3=O)[C@H](O)[C@@H](O)[C@@H]2O)[C@H](O)[C@H](O)[C@H]1O [RUTIN], the MIC [7] is reported as 37.5 µg/mL (≈ 61.4 µM), the MIC [8] is reported as 37.5 µg/mL (≈ 61.4 µM) and the MIC [9] is reported as 37.5 µg/mL (≈ 61.4 µM). For the same molecule, the MIC [10] was 37.5 µg/mL (≈ 61.4 µM).

In the case of O=c1c(O)c(-c2ccc(O)c(O)c2)oc2c(CN3CCOCC3)c(O)cc(O)c12, the inhibition [11] is reported as 100%.

COc1cc(-c2oc3cc(O)cc(O)c3c(=O)c2O[C@@H]2O[C@H](C(=O)[O-])[C@@H](O)[C@H](O)[C@H]2O)ccc1O.[Na+] gave an Activity [12] of 49.8%.

In the case of COc1ccc(CNCc2c(O)cc(O)c3c(=O)cc(-c4ccc(O)c(O)c4)oc23)cc1, the IC50 [2] is reported as 0.25 µg/mL (≈ 0.574 µM) and the IC50 [3] is reported as 0.25 µg/mL (≈ 0.574 µM).

O=c1c(O)c(-c2ccccc2)oc2cc(O)cc(O)c12 [GALANGIN] gave an MIC [13] of 0.25 µg/mL (≈ 0.925 µM), an MIC [14] of 0.25 µg/mL (≈ 0.925 µM) and an MIC [15] of 0.25 µg/mL (≈ 0.925 µM). It also gave an MIC [16] of 0.25 µg/mL (≈ 0.925 µM), an MIC [17] of 0.25 µg/mL (≈ 0.925 µM) and an MIC [18] of 0.25 µg/mL (≈ 0.925 µM). It also gave an MIC [19] of 0.25 µg/mL (≈ 0.925 µM) and an MIC [20] of 0.25 µg/mL (≈ 0.925 µM).

Molecule O=c1cc(-c2ccc(O)c(O)c2)oc2cc(O)cc(O)c12 [LUTEOLIN] has an MIC [7] of 37.5 µg/mL (≈ 131 µM), an IC50 [21] of 7.29 µM and an MIC [8] of 37.5 µg/mL (≈ 131 µM). The MIC [9] was 37.5 µg/mL (≈ 131 µM) and the MIC [10] was 37.5 µg/mL (≈ 131 µM).

O=c1c(O)c(-c2ccc(O)c(O)c2)oc2c(CN3CCSCC3)c(O)cc(O)c12 showed an inhibition [11] of 57.9%.

Work on O=C(O)CC[C@H](NC(=O)Oc1ccc(-c2oc3cc(O)cc(O)c3c(=O)c2O)cc1O)C(=O)O yielded a RatioGI50 [22] of 17, a GI50 [23] of 6 µM and a deltaH [24] of 47.2 kcal/mol.

With COc1cc(-c2oc3ccccc3c(=O)c2O)cc(OC)c1OC the “fold change (FC)” value [25] was 3, the “fold change (FC)” value [26] was 1.5 and the IC50 [27] was 3.3 µM.

COc1cc(OC)c2c(=S)c(OC)c(-c3ccc(OC)c(OC)c3)oc2c1 showed an IC50 [28] of 360 µM.

C[C@@H]1O[C@@H](OC[C@H]2O[C@@H](Oc3c(-c4ccc(O)c(O)c4)oc4c(CN5CCCC5)c(O)c(CN5CCCC5)c(O)c4c3=O)[C@H](O)[C@@H](O)[C@@H]2O)[C@H](O)[C@H](O)[C@H]1O gave an IC50 [21] of 7.57 µM.

With O=c1c(O)c(-c2ccc(O)c(O)c2)oc2cc(O[C@H]3O[C@H](CO)[C@@H](O)[C@H](O)[C@H]3O)cc(O)c12 the CC50 at 48 h [29] was > 100 µg/mL and the IC50 [30] was 2.1 µg/mL (≈ 4.52 µM).

— ChEMBL document CHEMBL5126518, “Quercetin derivatives: Drug design, development, and biological activities, a review” (Eur J Med Chem, 2022)
